Data on two substances can be found in patent US5652222A, “Selective inhibition of leukemic cell proliferation by bcr-abl antisense oligonucleotides” (Temple University-of The Commonwealth System of Higher …, priority 1993, dated 1997).

In data set [1] the test system is Philadelphia chromosome-positive blast cells of CML patients in blast crisis, L-6 (b2a2) type junction. Description: Colony formation of CML blast crisis patient cells expressing the b2a2 (L-6) junction. The data set is classed as cell-based, human. To be noted: for Number of Colonies, Antisense-treated: 40 μg/ml at start, 20 μg/ml 18 h later; for % Inhibition: number of colonies vs untreated. The protocol:
Leukemia cells were obtained from the marrow of the posterior iliac crest of five CML patients in blast crisis. The cells were diluted 1:2 in Iscove's modified Dulbecco medium (IMDM) to form a cell suspension. Philadelphia chromosome-positive blast cells were isolated by Ficoll-Hypaque density gradient sedimentation to remove non-mononuclear cells. Accordingly, the bone marrow cell suspension was gently overlayed on a Histopaque density gradient (Sigma Chemical Co., St. Louis, Mo.) in a 2:1 ratio, and then spun down for 30 min. at 1500 rpm and 18° C. Cells remaining in the interface layer after centrifugation were collected using a Pasteur pipet, and washed with IMDM at 1000 rpm and […] for 10 min.
Cells plated into methyl cellulose semisolid media after 7-11 days of culture were recovered from the medium. Total RNA was isolated according to the procedure of Chomczynski et al, Anal. Biochem. 162, 156-159 (1987). The RNA ([…]) isolated from one patient having particularly exuberant cell growth was annealed with the 3' RT-PCR primer GCTTCACACC ATTCCCCATTGT (SEQ ID NO:10) complementary to 22 nucleotides of c-abl exon 2 for 30 minutes at 37° C. Following annealing of the 3' primer, the RNA was reverse transcribed with 500 units of Moloney murine leukemia virus reverse transcriptase at 37° C. for 1 hour. The reaction was stopped and the mixture diluted in 1 x Thermus aquaticus (Taq) polymerase buffer. A 5' primer, the 22 nucleotide oligomer CACAGCATTCCGCTGACCATCA (SEQ ID NO: 11) complementary to bcr exon 2 and additional c-abl exon 2 3' primer were added to a final concentration of 2 ng/μl each with 2.5 units of Taq polymerase for amplification of the cDNA fragments. Sixty cycles of PCR were performed in a Perkin Elmer Thermal Cycler by annealing at 55° C., synthesizing at 72° C. and denaturing at 95° C. The amplification product, corresponding to the b2a2 junction, was thereafter separated on a 2% agarose gel. The band containing the bcr-abl fragment was cut out and cleaned according to a standard technique utilizing a GENE-CLEAN™ kit (Bio 101, Inc.), cloned by blunt end ligation in the BLUESCRIPT SK vector (Stratagene Cloning Systems) linearized by SMA I digestion. Several individual clones were then sequenced using the SEQUENASE™ version 2.0 enzyme (United States Biochemical Corp., Cleveland, Ohio), according to the sequence protocol recommended by the manufacturer. Accordingly, the denatured bcr-abl DNA fragments were annealed with specific primers which flank the cloning site in the BLUESCRIPT SK vector, in the presence of SEQUENASE™ reaction buffer for 15 min. at 37° C. The primer-annealed fragments were incubated at room temperature with SEQUENASE™ version 2.0 enzyme and α-S^35 dAT at 37° C. Subsequently, labelled template-primer complexes were transferred to tubes containing A, T, C and G nucleotides (one nucleotide per tube) and incubated 5-30 min. at 37° C. The samples were then loaded on a previously prepared acrylamide gel, and run for approximately 10 hours. The sequencing gel was dryed, and the film exposed O/N. Sequence analysis of several of the individual clones identified the bcr-abl junction as having the cDNA sequence shown in FIG. 1 (SEQ ID NO:1). The arrow in the figure indicates the bcr-abl breakpoint junction, and the box delineates the 18 nucleotides corresponding to the junction, which forms a preferred target sequence for hybridization of antisense oligomer. The junction corresponds precisely to the L-6 type breakpoint reported by Shtivelman et al., Cell 47, 277 (1986), in which the bcr exon 2 is fused to c-abl exon 2.
In a similar manner, L-6 type junctions were identified in the remaining CML blast crisis patients by hybridization of RT-PCR amplification products derived from blast crisis CML RNA using a synthetic 18-mer GAAGGGCTTC TTCCTTAT (SEQ ID NO:3) specific for the 18-nucleotide target sequence of the L-6 bcr-abl junction. […]

In data set [2] the test system is BV173 cells (cALL antigen (CALLA)-positive cells). Description: Immunofluorescence / flow cytometry of CALLA-positive cells in tissues of leukemic SCID mice. Format: in vivo, SCID mice (human leukemic cells). The protocol:
A first assay comprised an immunofluorescence analysis of cALL antigen (CALLA)-positive cells. All BV173 cells but not normal murine hematopoietic cells express this antigen (assay sensitivity=10^-2). Single cell suspensions were prepared for flow cytometry analysis from peripheral blood, spleen and bone marrow cells of the leukemic SCID mice by centrifugation on a lymphocyte-M gradient (Cedarlane Labs, Ltd., Ontario, Canada). Cells (1×10^5) were stained with the FITC-conjugated mouse anti-CALLA monoclonal antibody (Becton-Dickinson Immunocytometry Systems, San Jose, Calif.) to human CD10 antigen. After staining, cells were washed and analyzed by flow cytometry using the Epics Profile Analyzer (Coulter Electronic).
To determine whether synthetic phosphorothioate oligodeoxynucleotides targeted against the bcr-abl junction of […] cells would modify the disease process in SCID mice. SCID mice were injected with 10^6 BV173 cells. The mice then received 1 mg of sense (ATCAATAAGG AAGCCCTTCAGCG, SEQ ID NO:34) or antisense ([…] ATTGAT, SEQ ID NO:29) b2/a2 bcr-abl phosphorothioate oligodeoxynucleotides (pyrogen leven <1 Eu/mg; 0.2 ml in Iscove modified Dulbecco medium in 5-10 seconds) intravenously for each of 9 consecutive days, beginning either 7 or 21 days after introducing 10^6 BV173 cells. Control mice received the diluent (iscove's modified Dulbecco medium) only. These time points approximate distinct disease stages in humans.

Setting [3] is: 1 mg/day i.v. x9 from day +7, 26 days after last treatment (6 weeks).
The mark [4] stands for this setting: from day +21, 1 mg/day x9, 26 days after treatment (8 weeks).

“SEQ ID NO:3: synthetic 18-mer GAAGGGCTTC TTCCTTAT specific for the 18-nucleotide target sequence of the L-6 bcr-abl junction (antisense GAAGGGCTTCTTCCTTAT; chemistry not given here)”: the “colonies of blast cells formed” value in data set [1] (10 days in semi-solid culture (FIG. 2)) is “very few colonies, with a much smaller number of cells”. Also, the “Number of Colonies, Antisense-treated” value in data set [1] (Table 1, patient 1, untreated 450 ± 64) was 112 ± 18 colonies; in data set [1] (Table 1, patient 2, untreated 324 ± 18), 62 ± 8 colonies; in data set [1] (Table 1, patient 4, untreated 212 ± 15), 80 ± 8 colonies; in data set [1] (Table 1, patient 5, untreated 380 ± 16), 70 ± 8 colonies. The “% Inhibition” value in data set [1] (Table 1, patient 3) is 90%; in data set [1] (Table 1, patient 5), 82%. The “inhibition of colony formation” value in data set [1] (five L-6 type junction patients, repeated experiments) is reported as 60 to 90%.

“SEQ ID NO:34: phosphorothioate sense sequence ATCAATAAGGAAGCCCTTCAGCG (23-mer b2a2 sense) (sense ATCAATAAGGAAGCCCTTCAGCG; all phosphorothioate, sugars by position and methylation of C not given here)”: the “CALLA+ cells, bone marrow” value in data set [2] (1 mg/day i.v. x9 from day +7, 12 days after last treatment (4 weeks)) was “detected in bone marrow of control and sense-treated animal”; in data set [2] (setting [3]), 16.8±1.8%; in data set [2] (from day +21, 1 mg/day x9, 12 days after last treatment (6 weeks), control 17.7±1.8), 10.0±0.5%; in data set [2] (setting [4]), 23.9±5.0%. Besides, the “CALLA+ cells, peripheral blood” value in data set [2] (setting [3]) worked out at 1.9±0.2%; in data set [2] (from day +21, 1 mg/day x9, 12 days after last treatment (6 weeks), control 1.0±0.1), 0.9±0.1; in data set [2] (setting [4]) it was 2.0±0.3%. Also, the “CALLA+ cells, spleen” value in data set [2] (setting [3]) is recorded as 4.1±0.2%; in data set [2] (from day +21, 1 mg/day x9, 12 days after last treatment (6 weeks), control 1.9±0.1) it was 1.9±0.8%; in data set [2] (setting [4]), 9.9±1.8%.

What is called % Inhibition is the drop in the measured response relative to a control, in per cent. The low end stands for a weak effect, the high end for a strong effect.
